The results in this text go back to US20210253520A1, “POLYMYXIN-BASED COMPOUNDS USEFUL AS ANTIBACTERIAL AGENTS” (UNIVERSITAT DE BARCELONA, priority 2018, published 2021).

In brackets after ≈: the same amount, converted by molar mass. Where two headings read alike, the source gives them in different places.

For data set [1], the system named is E. coli ATCC 25922. The experiment in a line: microbe, parasite or virus in culture. It counts as cell-based. The method, then: (§1) The antibacterial activity of the polymyxin lipopeptides was measured at ISGlobal following the microdilution test to determine the Minimal Inhibitory Concentrations (MIC) in sterile 96-well polypropilene plates. The concentration range was 32 a […] in Iso-Sensitest broth (Oxoid, ThermoFisher). The results were carried out in triplicate and the highest MIC is the one shown. Bacterial strains were grown in blood agar plates at 37° C. for 17 h. Fresh colonies were used to prepare a McFarland 0.5 solution that was finally added to the plates at 1 to 100 dilution
(§2) Samples of sensitive and multi-drug resistant bacteria were: E. coli ATCC 25922 E. coli MB1410; K. pneumoniae MB674; P. aeruginosa ATCC 27853; P. aeruginosa 36A.

The subject of data set [2] is P. aeruginosa 36A. The experiment in a line: microbe, parasite or virus in culture. It counts as cell-based. Conditions: resistance profile of strain P. aeruginosa 36A, Table 3. The method, then: as §1, §2
Data set [3] relates to P. aeruginosa ATCC 27853. The experiment in a line: microbe, parasite or virus in culture. The class given is cell-based. The following applies: resistance profile of strain P. aeruginosa ATCC 27853, Table 3. The method, then:
as §1, §2

Data set [4] deals with E. coli MB1410. The experiment in a line: microbe, parasite or virus in culture. The class given is cell-based. The following applies: Escherichia coli. The method, then: as §1, §2
In data set [5] the test system is K. pneumoniae MB674. It counts as cell-based. Conditions: resistance profile of strain K. pneumoniae MB674, Table 3. The procedure: as §1, §2
Data set [6] concerns Swiss CD-1 female mice. The experiment in a line: Nephrotoxicity study, histopathological scoring of kidney lesions. It counts as in vivo. Also noted: key to Group Score (GS): mean of per-animal summed 0-4 lesion scores; higher = more nephrotoxic. The procedure: Swiss CD-1 female mice weighing approximately 20-24 g (JANVIER Labs) were used, housed in an individually ventilated cage system under specific pathogen-free conditions, and water and food supplied ad libitum. This study plan and the conduct of the study were subjected to review by the Scientific Park of Barcelona Ethical Review Process with the current study procedure Code CEEA (AR) 9377-P2. Mice were administered at a dose of 12 mg/Kg every 2 hours for a total of 6 administrations (total dose 72 mg/Kg), unless otherwise stated. After 20 h, animals were anesthesized with isoflurane, kidneys extracted and prepared for histopathological evaluation, and finally animales were sacrificed. Kidney lesions (tubule dilation, necrosis, tubule casts, cell vacuolization, cell desquamation, and cell swelling) were quantified by microscopical observation (see for instance, Roberts, ACS Infect. Dis., 2015, 1, 568). Each one of these parameters was scored with values from 0 to 4 for each animal, as a global result of observations in kidney. Partial scores have been added up to obtain a final score for each animal (Animal Score, AS). The mean of animal score has been obtained to define the Group Score (GS). The higher the score, the more nephrotoxic a compound is. The nephrotoxicity score has been determined as according to the following table of approximated values: […]

Setting [7] is: Escherichia coli, ATCC25922, resistance profile of strain E. coli ATCC 25922, Table 3, read-out: MIC.
Setting [8] is: Pseudomonas aeruginosa, ATCC27853, read-out: MIC.
[9] abbreviates: resistance profile of strain E. coli ATCC 25922, Table 3.
Setting [10] is: Table 8, 12 mg/Kg every 2 hours × 6 sc, total 72 mg/Kg, 3 mice.

In the case of `CO/N=C(\C(=O)N[C@@H]1C(=O)N2C(C(=O)[O-])=C(C[N+]3(C)CCCC3)CS[C@H]12)c1csc(N)n1` [FEP, Cefepime], the MIC in data set [1] (setting [7]) is 0.06 µg/mL (≈ 0.125 µM); in data set [2] (Pseudomonas aeruginosa, read-out: MIC) it was 8 µg/mL (≈ 16.6 µM); in data set [3] (setting [8]), 1 µg/mL (≈ 2.08 µM).
For `C[C@@H](O)[C@H]1C(=O)N2C(C(=O)O)=C(SCCN=CN)C[C@H]12` [IP, Imipenem], the MIC in data set [1] (Escherichia coli, ATCC25922) is 0.125 µg/mL (≈ 0.418 µM); in data set [4] (MB1410), 0.125 µg/mL (≈ 0.418 µM); in data set [3] (setting [8]), 2 µg/mL (≈ 6.68 µM).
With `C[C@H]1COc2c(N3CCN(C)CC3)c(F)cc3c(=O)c(C(=O)O)cn1c23` [Lev, Levofloxacin], the MIC came out at 0.094 µg/mL (≈ 0.26 µM) in data set [1] (setting [7]) and 1.5 µg/mL (≈ 4.15 µM) in data set [3] (setting [8]).
`C[C@@H](O)[C@H]1C(=O)N2C(C(=O)O)=C(S[C@@H]3CN[C@H](C(=O)N(C)C)C3)[C@H](C)[C@H]12` [MP, Meropenem]: the MIC in data set [1] (Escherichia coli, ATCC25922) stood at 0.125 µg/mL (≈ 0.326 µM); in data set [4] (resistance profile of strain E. coli MB1410, Table 3, read-out: MIC) it was 0.094 µg/mL (≈ 0.245 µM); in data set [3] (setting [8]), 0.38 µg/mL (≈ 0.991 µM).
On to `CN(C)c1cc(NC(=O)CNC(C)(C)C)c(O)c2c1C[C@H]1C[C@H]3[C@H](N(C)C)C(O)=C(C(N)=O)C(=O)[C@@]3(O)C(O)=C1C2=O` [TG, Tigecicline], for which the MIC in data set [1] (setting [9]) is 0.5 µg/mL (≈ 0.854 µM); in data set [2] it was 12 µg/mL (≈ 20.5 µM); in data set [3] it was 12 µg/mL (≈ 20.5 µM); in data set [5], 0.5 µg/mL (≈ 0.854 µM).
As to Gentamicin [Gm], the MIC in data set [1] (setting [9]) amounted to 0.5 µg/mL; in data set [3] it was 1.5 µg/mL; in data set [5] it was 2 µg/mL.
With “Nonanoyl-Dab-Thr-Dab-cyclo(S-S)[Cys-Dab-DPhe-Leu-Dab-Dab-Cys] [compound 1]”, in data set [6] (setting [10]), the “AS, Partial AS” value was 12; the “Cell vacuolization, Partial AS” value was determined as 0; the “Cloudy swelling, Partial AS” value is listed as 6; the “Group Score (GS)” value is 4. For the same molecule, in data set [6] (setting [10]), the Mice found dead result is recorded as “none”; the “Tubular casts, Partial AS” value amounted to 0; the “Tubular dilaion, Partial AS” value amounted to 6; the “Tubular necrosis, Partial AS” value was 0. Further, the “nephrotoxicity in mice, in words” value in data set [6] (nephrotoxicity tests carried out in mice, statement of the background) was “showed nephrotoxicity”.
